The record followed here is PubChem BioAssay AID2060335 (Molecular Pharmacology Branch, DTP, NCI, 2025).

“And” between values parts separate entries of the source, which are not always exact repeats. Equal values may be shown once.

In this assay the test system is DU-145 multicell spheroids with HUVEC/MSC, viability. The assay can be described thus: Anticancer human tumor DU-145 cell line growth inhibition [IpAb].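 On all read-outs here: spheroids exposed to agents for seven days before measurement.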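 On viability, T/C: percent of DMSO vehicle control viability so 100% = untreated level.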 Conditions: for viability, T/C: stronger effect = lower value. The source says:
Combinatorial screen of targeted agents with ipatasertib and abemaciclib in multi-cell type tumor spheroids
A high-throughput screen of multi-cell type tumor spheroids was designed to identify active combinations of targeted small molecules and ipatasertib or abemaciclib. Complex spheroids include a stromal component modeled by human endothelial cells (HUVEC) and fibroblasts modeled by human mesenchymal stem cells (MSCs). The concentration ranges selected for each drug and investigational agent were based upon clinically achievable concentrations if the clinical Cmax of the agent was known.
Compounds. The drugs and investigational agents: ipatasertib (NSC767898), abemaciclib(NSC768073), selumetinib (NSC741078), trametinib (758246), adavosertib (NSC754352), everolimus (NSC733504), sapanisertib (NSC764658), vemurafenib (NSC761431), venetoclax (NSC766270), copanlisib (NSC809693), apelisib (NSC765974), palbociblib (NSC758247), vemurafenib (NSC761431), dabrafenib (NSC764134), ravoxertinib (NSC781343), BMS-387032 (NSC767048), sotorasib (NSC818433), talazoparib (NSC767125) and afursertib (NSC778305), were obtained from the National Cancer Institute (NCI) Developmental Therapeutics Program Chemical Repository. The FDA-approved anticancer drug set is available from the NCI Developmental Therapeutics Program. […] The stock solutions were prepared in dimethyl sulfoxide (DMSO, Sigma-Aldrich, St. Louis, MO, cat. D2650) at 800-fold the tested concentration and stored at -70 degrees C prior to their use. All drugs and investigational agents were tested over a range starting from a high concentration at or near the clinical Cmax and decreasing in half-log increments. If the clinical Cmax for an agent had not been determined, the highest concentration tested was 10 microM.
NCI60 Cell Culture. NCI60 cell lines were obtained from the NCI Developmental Therapeutics Program Tumor Repository. For each lot of cells, the Repository performed Applied Biosystems AmpFLSTR Identifiler testing with PCR amplification to confirm consistency with the published Identifier STR profile for each cell line. Cells were kept in continuous culture for no more than 20 passages. The optimal seeding densities for each of the cell lines at each time point assessed were determined prior to performing the concentration response studies. Briefly, the NCI60 human tumor lines were grown as monolayers in RPMI 1640 medium supplemented with 10% FBS and 2 mmol/L L-glutamine.
An additional 9 lines were from the NCI60 cell line panel including MDA-MB-231 breast carcinoma, MDA-MB-468 breast carcinoma, MCF7 breast carcinoma, Hs578T breast carcinoma, MALME-3M melanoma, SK-MEL-2 melanoma, SK-OV-3 ovarian carcinoma, DU-145 prostate carcinoma, PC-3 prostate carcinoma, all cell lines along with major genetic alterations are listed on Table 2. Pooled donor human umbilical vein endothelial cells (HUVEC, Lonza, cat. CC-2519) and human mesenchymal stem cells (hMSC, Lonza, cat. PT-2501) were purchased from Lonza (Walkersville, MD).
PDMR cell lines were grown in complete medium (DC medium): Dulbecco's modified Eagle's medium (DMEM)/F12 supplemented with 5% fetal bovine serum (FBS), 2 mM L-glutamine, 100 U/mL penicillin and 100 µg/ml streptomycin, 0.4 µg/ml hydrocortisone, 10 ng/ml epidermal growth factor (EGF) recombinant human protein, 24 µg/mL adenine, and 0.1 mg/mL primocin. During culture from frozen stock vials, PDMR cells were cultured in the same medium containing 10 µM Y-27632 (see Table 3). The PDCs were cultured in complete DMEM/F12 media without 10 microM Y-27632 dihydrochloride for at least two passages prior to the screen. The pooled donor HUVEC and hMSC were cultured in endothelial cell growth medium 2 (PromoCell, Heidelberg, Germany, cat. C-22011) and mesenchymal stem cell growth medium 2 (PromoCell, cat. C-28009), respectively. For all experiments, HUVEC and hMSC were used at passages </=5.
[…]

Setting [1] is: curve of first compound, second compound 0.01 µM.
The mark [2] stands for this setting: curve of first compound, second compound 0.0316 µM.
Where [3] appears, read: curve of first compound, second compound 0.1 µM.
The mark [4] stands for this setting: curve of first compound, second compound 0.316 µM.
[5] abbreviates: curve of first compound, second compound 1 µM.

What is called IC50 is the point on the concentration scale where inhibition reaches its midpoint. One may read the viability, T/C as the result in the treated group divided by that in the control group, in per cent. Consider `Cn1cnc2c(F)c(Nc3ccc(Br)cc3Cl)c(C(=O)NOCCO)cc21` + CCN1CCN(Cc2ccc(Nc3ncc(F)c(-c4cc(F)c5nc(C)n(C(C)C)c5c4)n3)nc2)CC1, for which the IC50 reads like this: under setting [1], 0.256 µM; under setting [2], 0.213 µM; under setting [3], 0.145 µM; under setting [4], 0.184 µM; under setting [5], 0.0824 µM. The viability, T/C by setting is: (second compound 0.01 µM, first compound 0.00949 µM) 80.8%; (second compound 0.01 µM, first compound 0.03 µM) 74.8%; (second compound 0.01 µM, first compound 0.0949 µM) 56.1%; (second compound 0.01 µM, first compound 0.3 µM) 50.7%; (second compound 0.01 µM, first compound 0.949 µM) 42.8%; (second compound 0.01 µM, first compound 3 µM) 38.6%. Further, the viability, T/C (second compound 0.0316 µM, first compound 0.00949 µM) is 71%; the viability, T/C (second compound 0.0316 µM, first compound 0.03 µM) is 64.5%; the viability, T/C (second compound 0.0316 µM, first compound 0.0949 µM) is 53.5%; the viability, T/C (second compound 0.0316 µM, first compound 0.3 µM) was 46.7%; the viability, T/C (second compound 0.0316 µM, first compound 0.949 µM) was 44.5%; the viability, T/C (second compound 0.0316 µM, first compound 3 µM) is 34.4%. For the same compound, the viability, T/C runs as follows: (second compound 0.1 µM, first compound 0.00949 µM) 67.4%; (second compound 0.1 µM, first compound 0.03 µM) 57.6%; (second compound 0.1 µM, first compound 0.0949 µM) 53.8%; (second compound 0.1 µM, first compound 0.3 µM) 46.3%; (second compound 0.1 µM, first compound 0.949 µM) 39.9%; (second compound 0.1 µM, first compound 3 µM) 37.1%. Further, the viability, T/C runs as follows: (second compound 0.316 µM, first compound 0.00949 µM) 61.5%; (second compound 0.316 µM, first compound 0.03 µM) 56.3%; (second compound 0.316 µM, first compound 0.0949 µM) 52.8%; (second compound 0.316 µM, first compound 0.3 µM) 45.9%; (second compound 0.316 µM, first compound 0.949 µM) 47.4%; (second compound 0.316 µM, first compound 3 µM) 39.2%. Also, the viability, T/C is 58.1% (second compound 1 µM, first compound 0.00949 µM); 54.1% (second compound 1 µM, first compound 0.03 µM); 48.8% (second compound 1 µM, first compound 0.0949 µM); 44.4% (second compound 1 µM, first compound 0.3 µM); 42.1% (second compound 1 µM, first compound 0.949 µM); 35% (second compound 1 µM, first compound 3 µM).

For `COc1c(OCCCN2CCOCC2)ccc2c3n(c(=NC(=O)c4cnc(N)nc4)nc12)CCN3`, the viability, T/C was 78.7% and 83.3% (compound 0.00316 µM); 49.7% and 48.7% (compound 0.01 µM); 27.3% and 28.9% (compound 0.0316 µM); 15.9% and 14.9% (compound 0.1 µM); 10.9% and 10.1% (compound 0.316 µM); 11% and 11.2% (compound 1 µM). Besides, where the note is “curve of compound”, the IC50 is 0.00992 µM and 0.00981 µM.

Take `C=CCn1c(=O)c2cnc(Nc3ccc(N4CCN(C)CC4)cc3)nc2n1-c1cccc(C(C)(C)O)n1`: the viability, T/C is 92.5% and 92.3% (compound 0.0316 µM); 59.8% and 56.2% (compound 0.1 µM); 23.2% and 29.1% (compound 0.316 µM); 18.4% and 24.8% (compound 1 µM); 11.1% and 15.6% (compound 3.16 µM); 9.63% and 14.2% (compound 10 µM). The IC50 (curve of compound) is 0.136 µM and 0.129 µM.

For `Cc1nc(NC(=O)N2CCCC2C(N)=O)sc1-c1ccnc(C(C)(C)C(F)(F)F)c1` (centres undefined) + CCN1CCN(Cc2ccc(Nc3ncc(F)c(-c4cc(F)c5nc(C)n(C(C)C)c5c4)n3)nc2)CC1, the 50% inhibitory concentration (IC50) stood at 0.186 µM under setting [1]; 0.116 µM under setting [2]; 0.0973 µM under setting [3]; 0.0941 µM under setting [4]; 0.168 µM under setting [5]. Besides, the viability, T/C is 75.3% (second compound 0.01 µM, first compound 0.0316 µM); 59.4% (second compound 0.01 µM, first compound 0.1 µM); 39.9% (second compound 0.01 µM, first compound 0.316 µM); 31.5% (second compound 0.01 µM, first compound 1 µM); 19.4% (second compound 0.01 µM, first compound 3.16 µM); 9.2% (second compound 0.01 µM, first compound 10 µM). Further, the viability, T/C was 73.5% (second compound 0.0316 µM, first compound 0.0316 µM); 45.8% (second compound 0.0316 µM, first compound 0.1 µM); 38% (second compound 0.0316 µM, first compound 0.316 µM); 29.5% (second compound 0.0316 µM, first compound 1 µM); 19.2% (second compound 0.0316 µM, first compound 3.16 µM); 8.68% (second compound 0.0316 µM, first compound 10 µM). Besides, the viability, T/C runs as follows: (second compound 0.1 µM, first compound 0.0316 µM) 67.1%; (second compound 0.1 µM, first compound 0.1 µM) 49.2%; (second compound 0.1 µM, first compound 0.316 µM) 33.8%; (second compound 0.1 µM, first compound 1 µM) 28.6%; (second compound 0.1 µM, first compound 3.16 µM) 20.5%; (second compound 0.1 µM, first compound 10 µM) 11%. For the same compound, the viability, T/C by setting is: (second compound 0.316 µM, first compound 0.0316 µM) 61%; (second compound 0.316 µM, first compound 0.1 µM) 49.7%; (second compound 0.316 µM, first compound 0.316 µM) 36.8%; (second compound 0.316 µM, first compound 1 µM) 32.4%; (second compound 0.316 µM, first compound 3.16 µM) 24.1%; (second compound 0.316 µM, first compound 10 µM) 16%. Moreover, the viability, T/C is, setting by setting: (second compound 1 µM, first compound 0.0316 µM) 58.1%; (second compound 1 µM, first compound 0.1 µM) 55%; (second compound 1 µM, first compound 0.316 µM) 43.8%; (second compound 1 µM, first compound 1 µM) 39%; (second compound 1 µM, first compound 3.16 µM) 28.4%; (second compound 1 µM, first compound 10 µM) 21.5%.
